Assay results from patent US6479515B1, “Heterocyclic benzenesulphonamide compounds as bradykinine antagonists” (Fournier Industrie et Sante, priority 1999, dated 2002).
Where a name gives a salt, the structure may show the parent alone. Read-outs that look alike come from different tables or passages of the source.

Key:
[1] = target: T1, human B2 receptor (Homo sapiens, UniProt P30411); test: competitive binding test on CHO cell membranes expressing the human B2 receptor using [3H]-bradykinin as ligand
T1 construct: expressed in transfected cells; host or cells: CHO cells (membranes)
T1 sequence (P30411 1-391): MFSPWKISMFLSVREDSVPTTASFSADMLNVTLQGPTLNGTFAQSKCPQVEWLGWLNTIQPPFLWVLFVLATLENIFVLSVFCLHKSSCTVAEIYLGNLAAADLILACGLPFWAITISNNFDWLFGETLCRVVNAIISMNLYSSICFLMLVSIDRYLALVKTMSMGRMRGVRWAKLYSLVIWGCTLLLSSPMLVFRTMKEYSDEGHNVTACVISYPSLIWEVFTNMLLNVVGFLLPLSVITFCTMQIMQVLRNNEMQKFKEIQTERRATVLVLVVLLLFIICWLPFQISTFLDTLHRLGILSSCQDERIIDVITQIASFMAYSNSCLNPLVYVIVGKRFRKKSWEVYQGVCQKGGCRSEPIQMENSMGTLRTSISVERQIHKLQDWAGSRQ
Protocol: The activity of the products according to the invention was evaluated, according to a first aspect, as a function of their aptitude to bind to the bradykinin B2 receptors. […] It is likewise known that bradykinin is amongst one of the most powerful algesic agents known. The mode of action of kinins and more particularly of bradykinin makes a coupling of the peptides to the two types of receptors called B1 and B2 respectively take place. The B2 receptor belongs to the large family of receptors with seven transmembrane domains coupled to the G proteins and seems to be more particularly involved in the field of the pathologies mentioned above. This is the reason why the products of the invention, which have the property of being able to bind to the B2 receptor, inhibit the binding of bradykinin and, consequently, suppress its harmful activity. The test employed in order to measure this property is a competitive binding test on CHO cell membranes expressing the human B2 receptor using bradykinin labelled with tritium ([^3H]-bradykinin) as ligand.
The results are expressed by the Ki value, as calculated according to the recommended method with the description of the test employed and described according to D. Pruneau et al., in Br. J. Pharmacol. 1998, 125 p 365-372.

[2] = target: T2, bradykinin B2 receptor (Homo sapiens, UniProt P30411); test: inhibition of the contraction of the isolated human umbilical vein in the presence of bradykinin; format: cell-based
T2 construct: from tissue; host or cells: isolated human umbilical vein
T2 sequence (P30411 1-391): T1 sequence (P30411 1-391)
From the text: This antagonist character is expressed by the value pA2, calculated according to a biological test employed in order to measure the inhibition of the contraction of the isolated human umbilical vein by the compounds according to the invention in the presence of bradykinin. The test procedure and the method of calculation of pA2 are described in the articles of D. Pruneau et al. published in Br. J. Pharmacol. 1998, 125, p 365-372 and J L. Paquet et al. Br. J. Pharmacol. 1999, 126 (in print).

Compound | Ki [1] [nM] | pA2 ([2]; isolated human umbilical vein, contraction in the presence of bradykinin) | Kb ([2]; isolated human umbilical vein, contraction in the presence of bradykinin, read-out: pA2 (converted)) [nM] | Kb [2] [nM]
1-[[2,4-Dichloro-3-[[[4-(1H-imidazol-1-yl)-2-methyl-8-quinolinyl]oxy]methyl]-phenyl]sulphonyl]-N-[3-(4-morpholinyl)propyl]-2(S)-pyrrolidinecarboxamide, hemisulphate [Example 50] | 30 | 8.3 | – | –
CC(=O)N[C@H]1CCN(S(=O)(=O)c2ccc(Cl)c(COc3cccc4c(-n5ccnc5)cc(C)nc34)c2Cl)C1 [Example 174, N-[1-[[2,4-Dichloro-3-[[[4-(1H-imidazol-1-yl)-2-methyl-8-quinolinyl]oxy]-methyl]phenyl]sulphonyl]-3(S)-pyrrolidinyl]acetamide] | 8.8 | – | 7.94 | –
Cc1cc(-n2ccnc2)c2cccc(OCc3c(Cl)ccc(S(=O)(=O)N4CCC[C@H]4C(=O)NCC4CCNCC4)c3Cl)c2n1 [Example 10, 1-[[2,4-Dichloro-3-[[[4-(1H-imidazol-1-yl)-2-methyl-8-quinolinyl]oxy]methyl]-phenyl]sulphonyl]-N-(4-piperidinylmethyl)-2(S)-pyrrolidinecarboxamide, ditartrate] | 1 | – | – | 3.16
Cc1cc(-n2ccnc2)c2cccc(OCc3c(Cl)ccc(S(=O)(=O)N4CCC[C@H]4C(=O)NCCN4CCCC4)c3Cl)c2n1 [Example 75, 1-[[2,4-Dichloro-3-[[[4-(1H-imidazol-1-yl)-2-methyl-8-quinolinyl]oxy]methyl]-phenyl]sulphonyl]-N-[2-(1-pyrrolidinyl)ethyl]-2(S)-pyrrolidinecarboxamide, tartrate] | 2.8 | – | – | 5.01
Cc1cc(-n2ccnc2)c2cccc(OCc3c(Cl)ccc(S(=O)(=O)N4CC[C@@H](O)C4)c3Cl)c2n1 [Example 170, 1-[[2,4-Dichloro-3-[[[4-(1H-imidazol-1-yl)-2-methyl-8-quinolinyl]oxy]methyl]-phenyl]sulphonyl]-3(R)-pyrrolidinol, tartrate] | 7.8 | – | – | 10
Cc1cc(-n2cncn2)c2cccc(OCc3c(Cl)ccc(S(=O)(=O)N4CCC[C@H]4C(=O)NCC4CCN(CCCO)CC4)c3Cl)c2n1 [Example 30, 1-[[2,4-Dichloro-3-[[[2-methyl-4-(1H-1,2,4-triazol-1-yl)-8-quinolinyl]oxy]-methyl]phenyl]sulphonyl]-N-[[1-(3-hydroxypropyl)-4-piperidinyl]methyl]-2(S)-pyrrolidinecarboxamide, tartrate] | 0.73 | – | – | 2
Cc1cc(-n2ccnc2)c2cccc(OCc3c(Cl)ccc(S(=O)(=O)N4CCC[C@H]4C(=O)NCC4CCN(CCCO)CC4)c3Cl)c2n1 [Example 23, 1-[[2,4-Dichloro-3-[[[4-(1H-imidazol-1-yl)-2-methyl-8-quinolinyl]oxy]methyl]-phenyl]sulphonyl]-N-[[1-(3-hydroxypropyl)-4-piperidinyl]methyl]-2(S)-pyrrolidinecarboxamide, tartrate] | 0.45 | – | – | 0.794
